Test results reported in patent publication US20250082773A1, “COMBINATION THERAPY USING EXOSOME SECRETION INHIBITOR AND IMMUNE CHECKPOINT INHIBITOR” (Research & Business Foundation SUNGKYUNKWAN UNIVERSITY, priority 2021, published 2025).

Tests used:
CT26 tumor = assay: Tumor growth inhibition test in CT26 tumor-bearing mice; assay type: in vivo; settings: αPD-1 5 mg/kg i.p. every 3 days x3
Method: CT26 cells (2×10^6) were suspended in cold PBS and subcutaneously injected to establish CT26 tumor-bearing mice.
The tumor volume was measured using calipers and calculated for each mouse using the following equation: V=½ab^2 (a is the longest axis and b is the shortest axis). After the treatment schedule, the tumors were excised and weighed.
The tumor volume was measured every day by measuring long-axis and short-axis of the tumor using calipers.

exosomal PD-L1 = assay: Exosomal PD-L1 in plasma of CT26 tumor-bearing mice (ELISA); assay type: in vivo; settings: SFX 200 mg/kg, αPD-1 5 mg/kg, FIG. 4C
Method: To assess PD-L1 on EXOs isolated from mouse plasma, ELISA plates were coated with a monoclonal antibody against PD-L1 (R&D Systems, Minneapolis, MN, USA) overnight at 25° C. Free binding sites were blocked with blocking buffer for 2 h at 25° C. After washing the plates with 0.05% Tween-20 in PBS, EXOs were added to each well and incubated for 2 h at 25° C. […] The plate was incubated for 20 min with a substrate solution composed of H2O2 and tetramethylbenzidine. After the addition of a stop solution containing 2N H2SO4 (R&D Systems, DY994), the plate was immediately read at 450 nm using an xMark™ microplate reader (Bio-Rad).

CT26 cells = assay: Ability of PDC to inhibit exosome secretion in CT26 cells (NTA); assay type: cell-based, murine; design: dose or concentration left out as unconfirmed; settings: FIG. 14
Method: To evaluate the ability of PEG-b-Poly(L-lysine-CDM-SFX) to inhibit the secretion of exosomes, CT26 cells, a murine colon cancer cell line, were treated with 100 µM of SFX and the same amount of PDC, exosomes from the supernatant were separated, and secreted exosomes were quantitatively analyzed.
In addition, to evaluate the ability of PEG-SS-AMB to inhibit the secretion of exosomes, CT26 cells, a murine colon cancer cell line, were treated with […] of PEG-SS-AMB, exosomes from the supernatant were separated, and secreted exosomes were quantitatively analyzed.

With COc1ccccc1Oc1c(NS(=O)(=O)c2ccc(C(C)(C)C)cc2)nc(-c2ncccn2)nc1OCCO [BST, bosentan] the “tumor growth (tumor volume)” value (CT26 tumor; BST 10 mg/kg orally daily, FIG. 16B) was “effectively retarded”.
For CCCNS(=O)(=O)Nc1ncnc(OCCOc2ncc(Br)cn2)c1-c1ccc(Br)cc1 [MCT, macitentan], the “tumor growth (tumor volume)” value (CT26 tumor; MCT 50 mg/kg orally daily, FIG. 17B) was “effectively retarded”.
For Cc1noc(NS(=O)(=O)c2ccc(N)cc2)c1C [SFX, sulfisoxazole], the “exosomal PD-L1 levels in the plasma” value (exosomal PD-L1) was “significantly decreased” and the “inhibition of exosome secretion compared to the untreated control group” value (CT26 cells) was “more than 50%”.
